# Patent publication US12410355B2, “Compositions and methods for carbon dioxide solidification” (CHEVRON U.S.A. INC., priority 2022, dated 2025)
# Assays:
# [1] = Solubility limit (Ksp) of GBIG in NaCl brine; type: physicochemical; conditions: 25° C., 20 minutes of sonication
# Protocol: Solubility limit Ksp at 25° C. and 20 minutes of sonication. Solubility limit strongly depends on salinity: nonlinear dependence.
# [2] = GBIG·(HCO3)2(H2O)2(s) precipitation upon contacting with CO2(g); type: physicochemical; conditions: CO2 gas 0.5 psig, 30 minutes
# Protocol: GBIG·(HCO3)2(H2O)2(s) Precipitation Upon Contacting with CO2(g)
# Pour approximately 5 ml of the synthesized chemical solution into the polycarbonate reservoir. Open the CO2 gas cylinder valve and take note of the pressure. Open the delivery valve of the regulator. Increase the delivery pressure to 0.5 psig by turning the regulator knob. Open the 3-way valve connected to the bottom of the polycarbonate reservoir to initiate CO2 gas flow into the reservoir. Watch for precipitation in the liquid through the transparent polycarbonate reservoir wall for 30 minutes. For temperature dependence testing: Samples were placed in ovens at temperature of interest for 30 minutes, then used in the procedure detailed above.
# Results for the precipitation test for varying salinity and glyoxal-bis(iminoguanidine) (GBIG) concentration are shown in Tables 2-4 and FIGS. 3A-3C. Table 2 and FIG. 3A show results for 1 wt % NaCl and 0.397 wt % GBIG. Table 3 and FIG. 3B show results for 0.1 wt % NaCl and 0.243 wt % GBIG. Table 4 and FIG. 3C show results for 20 wt % NaCl and 0.064 wt % GBIG.
smiles,measurement,setting,value
"N=C(N)NN=CC=NNC(=N)N [GBIG, glyoxal-bis(iminoguanidine)]",GBIG Ksp,[1]; 0.1 wt % NaCl,0.0143
same,"Solubility limit, GBIG (wt %)",[1]; 0.1 wt % NaCl,0.243 wt %
same,GBIG Ksp,[1]; 1 wt % NaCl,0.0234
same,"Solubility limit, GBIG (wt %)",[1]; 1 wt % NaCl,0.397 wt %
same,GBIG Ksp,[1]; 20 wt % NaCl,0.0038
same,"Solubility limit, GBIG (wt %)",[1]; 20 wt % NaCl,0.064 wt %
same,Precipitation?,"[2]; 0.1 wt % NaCl and 0.243 wt % GBIG, 25° C.",Yes
same,Precipitation?,"[2]; 0.1 wt % NaCl and 0.243 wt % GBIG, 65° C.",Yes
same,Precipitation?,"[2]; 0.1 wt % NaCl and 0.243 wt % GBIG, 80° C.",Yes
same,Precipitation?,"[2]; 0.1 wt % NaCl and 0.243 wt % GBIG, 100° C.",Yes
same,Precipitation?,"[2]; 0.1 wt % NaCl and 0.243 wt % GBIG, 115° C.",Yes
same,Precipitation?,"[2]; 1 wt % NaCl and 0.397 wt % GBIG, 25° C.",Yes
same,Precipitation?,"[2]; 1 wt % NaCl and 0.397 wt % GBIG, 65° C.",Yes
same,Precipitation?,"[2]; 1 wt % NaCl and 0.397 wt % GBIG, 80° C.",Yes
same,Precipitation?,"[2]; 1 wt % NaCl and 0.397 wt % GBIG, 100° C.",Yes
same,Precipitation?,"[2]; 1 wt % NaCl and 0.397 wt % GBIG, 115° C.",Yes
same,Precipitation?,"[2]; 20 wt % NaCl and 0.064 wt % GBIG, 25° C.",Yes
same,Precipitation?,"[2]; 20 wt % NaCl and 0.064 wt % GBIG, 65° C.",Yes
same,Precipitation?,"[2]; 20 wt % NaCl and 0.064 wt % GBIG, 80° C.",Yes
same,Precipitation?,"[2]; 20 wt % NaCl and 0.064 wt % GBIG, 100° C.",Yes
same,Precipitation?,"[2]; 20 wt % NaCl and 0.064 wt % GBIG, 115° C.",Yes
